Experimental findings from US20190105367A1, “ANTIMICROBIAL 4-OXOQUINOLIZINES” (Emergent Product Development Gaithersburg Inc., priority 2011, published 2019) are described below.

In one test the test system is A. baumannii ATCC 19606. Nature of the test: MIC, selected panel of bacterial strains (Example 5). Format: cell-based, Acinetobacter baumannii.
Test [1] has as its system GN56 Acinetobacter baumannii levofloxacin resistant clinical isolate. The test is described as follows: Chequerboard synergy with polymyxin B, FICI (Example 6). Format: cell-based. The text has this: (§1) A chequerboard technique was used to identify possible synergistic or antagonistic interactions between the 4-oxoquinolizines compounds, levofloxacin and polymyxin B. Levofloxacin was included as a control. […] Final dilutions were made in Mueller-Hinton broth, the specific test medium used for MIC determinations according to CLSI guidelines (CLSI. Methods for Dilution Antimicrobial Susceptibility Tests for Bacteria That Grow Aerobically; Approved Standard-Eighth Edition (2009). CLSI Document M07-A8. CLSI, Wayne, Pa. 19087-1898, USA.). The test medium used was a cation-adjusted Mueller-Hinton Broth II (Becton Dickinson UK Ltd., Oxford Science Park, Oxford, UK, OX4 4DQ).
(§2) The compounds 2, 33 and 35, as well as levofloxacin were tested in combination with polymyxin B on the following isolates: GN31 Acinetobacter baumannii—antibiotic susceptible clinical isolate, GN52 Acinetobacter baumannii—levofloxacin resistant clinical isolate, GN56 Acinetobacter baumannii—levofloxacin resistant clinical isolate, GN48 Klebsiella pneumoniae—NCTC 13443—NDM-1-metallo-β-lactamase and GN10 Pseudomonas aeruginosa—ATCC 27853—antibiotic susceptible reference isolate. All isolates are from the collection maintained at Quotient Bioresearch Ltd., Cambridge, UK.
(§3) The MIC values for the compounds and polymyxin B and levofloxacin were determined by broth microdilution following CLSI guidelines, and the MICs of agents in combination were determined as described by Pillai et. al (Pillai S K, Moellering R C Jr, Eliopoulis G M; Antimicrobial Combinations in Antibiotics in Laboratory Medicine 5th Edition (V. Lorian Ed) (2005) p 365-440). Initial MIC results were used to determine the microtiter plate patterns for the chequerboards. A suitable doubling dilution concentration range was selected such that the combination antibiotic range was at least two concentrations above and four concentrations below the MIC for each isolate. A fixed range of 0.008 to 8 mg/L was tested for polymyxin B except in the case of A. baumannii GN31 where a range of 0.004 to 4 mg/L was tested when in combination with the compounds 2, 33 and 35 as well as levofloxacin.
(§4) From the raw data, fractional inhibitory concentration indices (FICI) were determined for the compounds of the invention and levofloxacin together with polymyxin B for each isolate as follows:
(§5) FICX=concentration of the combination antibiotic in a particular row MIC of the combination drug alone
(§6) FICY=MIC of polymyxin B in combination[…]MIC of the polymyxin B alone
(§7) Additionally isobolograms were created to represent the same data visually. Here, the MIC of polymyxin B was plotted against every concentration of the combination antibiotic up to the MIC.

Test [2] concerns GN31 Acinetobacter baumannii antibiotic susceptible isolate. The test is described as above. Format: cell-based.
Description: as §1, §2, §3, §4, §5, §6, §7

Test [3] relates to GN48 Klebsiella pneumoniae NCTC 13443 NDM-1-β-lactamase producing isolate. The description is as above. It is filed as cell-based.
Description: as §1, §2, §3, §4, §5, §6, §7

Test [4] relates to GN52 Acinetobacter baumannii levofloxacin resistant clinical isolate. Described as above. It is filed as cell-based.
Description: as §1, §2, §3, §4, §5, §6, §7

The subject of test [5] is S. aureus ATCC 43300 (MRSA, FQ-S). Nature of the test: MIC, selected panel of bacterial strains (Example 5). It is filed as cell-based, Staphylococcus aureus. To be noted: Staphylococcus aureus, read-out: MICs against Gram positive bacteria S. aureus ATCC 43300 (MRSA, FQ-S).
The next test relates to S. aureus ATCC 25923. The test is described as above. It is filed as cell-based, Staphylococcus aureus.
In another test the test system is E. coli ATCC 25922. The test is described as above. To be noted: Escherichia coli, ATCC25922, read-out: MICs against Gram negative bacteria E. coli ATCC 25922. It is filed as cell-based, Escherichia coli.
[6] abbreviates: Acinetobacter baumannii, ATCC19606, read-out: MICs against Gram negative bacteria A. baumannii ATCC 19606.
Setting [7] is: in combination with polymyxin B.
Setting [8] is: polymyxin B with the named antibiotic.
Setting [9] is: Staphylococcus aureus, ATCC25923, read-out: MICs against Gram positive bacteria S. aureus ATCC 25923.

Structures are written as SMILES. In brackets after ≈: the same amount, converted by molar mass. Read-outs that look alike come from different tables or passages of the source. Some results are limits rather than exact numbers.

Take `Cc1c(-c2ccc(CN)s2)ccn2c(=O)c(C(=O)[O-])cc(C3CC3)c12.[K+]` [Compound 13K salt, potassium 8-(5-(aminomethyl)thiophen-2-yl)-1-cyclopropyl-9-methyl-4-oxo-4H-quinolizine-3-carboxylate]: the MIC in the test with A. baumannii ATCC 19606 (setting [6]) came out at 0.125 µg/mL.

Regarding `Cc1c(-c2ccc3[nH]ncc3c2)ccn2c(=O)c(C(=O)O)cc(C3CC3)c12` [Compound 35, 8-(1H-indazol-5-yl)-1-cyclopropyl-9-methyl-4-oxo-quinolizine-3-carboxylic acid], the “Combination drug MIC alone” value is 8 µg/mL in test [1], 0.03 µg/mL in test [2] and 2 µg/mL in test [4]. Also, the FICx in test [1] worked out at 0.06; in test [2], 0.13; in test [3], 0.06; in test [4] it was 0.25. Moreover, the FICy came to 0.50 in test [1], 0.48 in test [2], 0.50 in test [3] and 0.24 in test [4]. For the same molecule, the FICI in test [1] (combination with polymyxin B) was 0.56; in test [2] (combination with polymyxin B) it was 0.61; in test [3] (combination with polymyxin B), 0.56; in test [4] (combination with polymyxin B) it was 0.49. The Synergy result is recorded as “Partial synergy (partial synergy/addition (FICI 0.51 to 0.75))” in test [1] (combination with polymyxin B); “Partial synergy (partial synergy/addition (FICI 0.51 to 0.75))” in test [2] (combination with polymyxin B); “Partial synergy (partial synergy/addition (FICI 0.51 to 0.75))” in test [3] (combination with polymyxin B); “partial synergy” in test [3] (combination with polymyxin B, listed as compound 35); “Synergy (Synergy (FICI <0.5))” in test [4] (combination with polymyxin B). Moreover, the “Combination drug concentration in combination” value was found to be 0.5 mg/L in test [1] (setting [7]), 0.004 mg/L in test [2] (setting [7]), 1 mg/L in test [3] (setting [7]) and 0.5 mg/L in test [4] (setting [7]). The “Polymyxin B MIC in combination” value in test [1] (setting [8]) came to 0.25 µg/mL; in test [2] (setting [8]), 0.12 µg/mL; in test [3] (setting [8]), 0.25 µg/mL; in test [4] (setting [8]) it was 0.12 µg/mL.

Take `Cc1c(-c2ccc(N)nc2)c(F)cn2c(=O)c(C(=O)[O-])cc(C3CC3)c12.[K+]` [Compound 60K salt, potassium 8-(6-aminopyridin-3-yl)-1-cyclopropyl-7-fluoro-9-methyl-4-oxo-4H-quinolizine-3-carboxylate]: in test [5], the MIC was less than 0.004 µg/mL.

Turning to `Cc1c(-c2ccc(O)cc2)c(F)cn2c(=O)c(C(=O)[O-])cc(C3CC3)c12.[K+]` [Compound 61K salt, potassium 8-(4-hydroxyphenyl)-1-cyclopropyl-7-fluoro-9-methyl-4-oxo-4H-quinolizine-3-carboxylate], the MIC was less than 0.004 µg/mL in test [5], 50 µg/mL with S. aureus ATCC 25923 (setting [9]) and 0.125 µg/mL in the test on A. baumannii ATCC 19606 (setting [6]).

As to `Cc1c(C2=CCNCC2)c(F)cn2c(=O)c(C(=O)[O-])cc(C3CC3)c12.[K+]` [Compound 62K salt, potassium 8-(1,2,3,6-tetrahydropyridin-4-yl)-1-cyclopropyl-7-fluoro-9-methyl-4-oxo-4H-quinolizine-3-carboxylate], the MIC in test [5] was 0.125 µg/mL.

In the case of `CC(=O)NCc1ccc(-c2ccn3c(=O)c(C(=O)[O-])cc(C4CC4)c3c2C)cc1.[K+]` [Compound 64K salt, potassium 8-(4-(Acetamidomethyl)phenyl)-1-cyclopropyl-9-methyl-4-oxo-4H-quinolizine-3-carboxylate], in the test on E. coli ATCC 25922, the MIC was determined as 0.125 µg/mL.

As to `COc1cc(-c2ccn3c(=O)c(C(=O)[O-])cc(C4CC4)c3c2C)ccc1O.[K+]` [Compound 66K salt, potassium 8-(4-hydroxy-3-methoxyphenyl)-1-cyclopropyl-9-methyl-4-oxo-4H-quinolizine-3-carboxylate], the MIC with E. coli ATCC 25922 is 0.125 µg/mL.

Regarding `Cc1c(-c2ccc3c(c2)C(=O)NC3)ccn2c(=O)c(C(=O)[O-])cc(C3CC3)c12.[K+]` [Compound 68K salt, potassium 8-(3-oxoisoindolin-5-yl)-1-cyclopropyl-9-methyl-4-oxo-4H-quinolizine-3-carboxylate], the MIC (in test [5]; with S. aureus ATCC 25923 (setting [9])) was 50 µg/mL throughout.

On to `CNc1ccc(-c2ccn3c(=O)c(C(=O)[O-])cc(C4CC4)c3c2C)cc1C.[K+]` [Compound 69K salt, potassium 8-(3-methyl-4-(methylamino)phenyl)-1-cyclopropyl-9-methyl-4-oxo-4H-quinolizine-3-carboxylate], for which the values for the MIC (in test [5]; in the test with S. aureus ATCC 25923 (setting [9]); in the test with E. coli ATCC 25922) were 50 µg/mL, 50 µg/mL and 0.125 µg/mL, respectively.

As to `Cc1c(-c2ccc3[nH]ncc3c2)c(F)cn2c(=O)c(C(=O)[O-])cc(C3CC3)c12.[K+]` [Compound 75K salt, potassium 8-(1H-indazol-5-yl)-1-cyclopropyl-7-fluoro-9-methyl-4-oxo-4H-quinolizine-3-carboxylate], the MIC (in test [5]; in the test with S. aureus ATCC 25923 (setting [9])) was 50 µg/mL throughout.

In the case of `Cc1c(-c2ccc3c(c2)CCN3)ccn2c(=O)c(C(=O)[O-])cc(C3CC3)c12.[K+]` [Compound 77K salt, potassium 8-(indolin-5-yl)-1-cyclopropyl-9-methyl-4-oxo-4H-quinolizine-3-carboxylate], in the test on E. coli ATCC 25922, the MIC came to 0.125 µg/mL.

Turning to `Cc1c(-c2ccc(N3CCNCC3)nc2)ccn2c(=O)c(C(=O)[O-])cc(C3CC3)c12.[K+]` [Compound 84K salt, potassium 8-(6-(piperazin-1-yl)pyridin-3-yl)-1-cyclopropyl-9-methyl-4-oxo-4H-quinolizine-3-carboxylate], the MIC (in test [5]; in the test with S. aureus ATCC 25923 (setting [9])) was 0.125 µg/mL in each case.

On to `Cc1c(-c2cnc3[nH]ccc3c2)ccn2c(=O)c(C(=O)[O-])cc(C3CC3)c12.[K+]` [Compound 85K salt, potassium 8-(1H-pyrrolo[2,3-b]pyridin-5-yl)-1-cyclopropyl-9-methyl-4-oxo-4H-quinolizine-3-carboxylate], for which the MIC (in test [5]; with S. aureus ATCC 25923 (setting [9])) was 50 µg/mL in each case.

For the molecule `Cc1cn2c(=O)c(C(=O)[O-])cc(C3CC3)c2c(C)c1-c1ccc(N)nc1.[K+]` [Compound 87K salt, potassium 8-(6-amino-pyridin-3-yl)-1-cyclopropyl-7,9-dimethyl-4-oxo-4H-quinolizine-3-carboxylate], in the test with E. coli ATCC 25922, the MIC came to 0.125 µg/mL.

As to `Cc1cn2c(=O)c(C(=O)[O-])cc(C3CC3)c2c(C)c1-c1ccc2[nH]ncc2c1.[K+]` [Compound 88K salt, potassium 8-(1H-indazol-5-yl)-1-cyclopropyl-7,9-dimethyl-4-oxo-4H-quinolizine-3-carboxylate], in the test with E. coli ATCC 25922, the MIC is 0.125 µg/mL.

As to `COc1c(-c2ccc(N)nc2)ccn2c(=O)c(C(=O)[O-])cc(C3CC3)c12.[K+]` [Compound 89K salt, potassium 8-(6-amino-pyridin-3-yl)-1-cyclopropyl-9-methoxy-4-oxo-4H-quinolizine-3-carboxylate], the MIC in the test with E. coli ATCC 25922 came to 0.125 µg/mL.

`COc1c(-c2ccc3[nH]ncc3c2)ccn2c(=O)c(C(=O)[O-])cc(C3CC3)c12.[K+]` [Compound 90K salt, potassium 8-(1H-indazol-5-yl)-1-cyclopropyl-9-methoxy-4-oxo-4H-quinolizine-3-carboxylate]: the MIC with E. coli ATCC 25922 amounted to 0.125 µg/mL.

`C[C@H]1c2cccc(O)c2C(=O)C2=C(O)[C@]3(O)C(=O)C(C(N)=O)=C(O)[C@@H](N(C)C)[C@@H]3[C@@H](O)[C@@H]21` [Doxycycline, reference compound]: the MIC in the test with S. aureus ATCC 25923 (Staphylococcus aureus, ATCC25923; read-out: MICs against Gram positive bacteria S. aureus ATCC 25923) is 0.125 µg/mL (≈ 0.281 µM); with A. baumannii ATCC 19606 (Acinetobacter baumannii, ATCC19606; read-out: MICs against Gram negative bacteria A. baumannii ATCC 19606), 0.125 µg/mL (≈ 0.281 µM).
